Results on two molecules are retold here after PMC11077868, “Rutinosides-derived from Sarocladium strictum 6-O-α-rhamnosyl-β-glucosidase show enhanced anti-tumoral activity in pancreatic cancer cells” (Microbial Cell Factories, 2024).

Experiment [1] deals with T1, 6-O-α-rhamnosyl-β-glucosidase (αRβG).
T1 construct: native, purified from culture supernatant of S. strictum; 99 kDa by SDS-PAGE; tryptic peptide TIHETYLAPWYDGVK matched to a 755-residue putative glycoside hydrolase (21-residue signal peptide) of another strain, A. strictum DS1bioAY4a, JGI ID 1029425
Briefly: hydrolysis; product release, Michaelis-Menten fit. The experiment is classed as biochemical, Sarocladium strictum. The note with it: 50 mM sodium phosphate pH 6.0, 60 °C, 1 h.

Experiment [2] has the same test system. Kind of experiment: hydrolysis; reducing sugars by […],4-dinitrosalicylic acid, Michaelis-Menten fit. In kind it is biochemical, Sarocladium strictum. The conditions noted are these: 50 mM sodium phosphate pH 6.0, 60 °C, 1 h.

One may read the Km as the substrate concentration at which the rate is half of its maximum. Take `C[C@@H]1O[C@@H](OC[C@H]2O[C@@H](Oc3c(-c4ccc(O)c(O)c4)oc4cc(O)cc(O)c4c3=O)[C@H](O)[C@@H](O)[C@@H]2O)[C@H](O)[C@H](O)[C@H]1O` [rutin]: in experiment [1], the Km was found to be 473 ± 4 µM.

On to `COc1ccc([C@@H]2CC(=O)c3c(O)cc(O[C@@H]4O[C@H](CO[C@@H]5O[C@@H](C)[C@H](O)[C@@H](O)[C@H]5O)[C@@H](O)[C@H](O)[C@H]4O)cc3O2)cc1O` [hesperidin], for which, in experiment [2], the Km turned out to be 700 ± 120 µM.
